Results from ChEMBL document CHEMBL1201862, “PubChem BioAssay data set” (2004).
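Results reflect a 48-hour exposure of cells in 96-well plates to compound at five concentrations. GI50: concentration for 50% inhibition of growth.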 The source made the active and inactive calls. Rule as the data show it: active = GI50 up to about 1.1 µM and inactive = higher.

Experiments:
Test in all cases: DTP human tumour cell line panel, 48 h
[1] = test system: SR
[2] = test system: CAKI-1
[3] = test system: NCI-H522
[4] = test system: RXF 393
[5] = test system: HCC 2998
[6] = test system: SF-539
[7] = test system: DMS-114
[8] = test system: DLD-1
[9] = test system: 786-0
[10] = test system: A498
[11] = test system: LXFL 529
[12] = test system: KM-20L2
[13] = test system: XF498
[14] = test system: SNB-78
[15] = test system: M19-MEL
[16] = test system: MCF7
[17] = test system: PC-3
[18] = test system: Hs-578T
[19] = test system: MDA-MB-231

Q: What does the source list for Cc1c(OC(C)C(=O)O)ccc2c(-c3ccccc3)cc(=O)oc12 (stereo unspecified)?
A: GI50 [1]: > 100 µM (inactive); GI50 [2]: > 100 µM (inactive); GI50 [3]: > 100 µM (inactive); GI50 [4]: > 100 µM (inactive); GI50 [5]: > 100 µM (inactive); GI50 [6]: > 100 µM (inactive); GI50 [7]: > 100 µM (inactive); GI50 [8]: > 100 µM (inactive); GI50 [9]: > 100 µM (inactive); GI50 [10]: > 100 µM (inactive); GI50 [11]: > 100 µM (inactive); GI50 [12]: > 100 µM (inactive); GI50 [13]: > 100 µM (inactive); GI50 [14]: > 100 µM (inactive); GI50 [15]: > 100 µM (inactive)

Q: How did the GI50 [1] turn out when O=C(Nc1ccc(Cl)c(Cl)c1)C(=O)C(C(=O)c1ccccc1F)C1OC(=O)c2ccccc21 (stereo unspecified) was run?
A: Its GI50 is 10.4 µM (inactive).

Q: And the GI50 [2]?
A: The GI50 was 35.2 µM (inactive).

Q: And the GI50 [3]?
A: The GI50 was 12.6 µM (inactive).

Q: And the GI50 [4]?
A: The GI50 was 20.7 µM (inactive).

Q: What about the GI50 [5] of the same molecule?
A: Its GI50 is 17.9 µM (inactive).

Q: What about the GI50 [6] of the same molecule?
A: Its GI50 is 11.1 µM (inactive).

Q: What about the GI50 [7] of the same molecule?
A: The GI50 was 18.7 µM (inactive).

Q: And the GI50 [8]?
A: The GI50 was 26.4 µM (inactive).

Q: And the GI50 [10]?
A: The GI50 was 37.8 µM (inactive).

Q: And the GI50 [11]?
A: Its GI50 is 17.6 µM (inactive).

Q: What about the GI50 [12] of the same molecule?
A: Its GI50 is 23.6 µM (inactive).

Q: What about the GI50 [13] of the same molecule?
A: Its GI50 is 31.8 µM (inactive).

Q: And the GI50 [14]?
A: The GI50 was 11.2 µM (inactive).

Q: And the GI50 [15]?
A: Its GI50 is 14.6 µM (inactive).

Q: Which GI50 [1] does the source give for ON(Cc1ccccc1)C(=S)c1ccccc1 here?
A: Its GI50 is 0.481 µM (active).

Q: What about the GI50 [3] of the same molecule?
A: The GI50 was 0.482 µM (active).

Q: What about the GI50 [16] of the same molecule?
A: Its GI50 is 3.28 µM (inactive).

Q: What about the GI50 [4] of the same molecule?
A: The GI50 was 8.97 µM (inactive).

Q: And the GI50 [5]?
A: Its GI50 is 7.24 µM (inactive).

Q: What about the GI50 [6] of the same molecule?
A: Its GI50 is 5.43 µM (inactive).

Q: What about the GI50 [7] of the same molecule?
A: Its GI50 is 2.22 µM (inactive).

Q: And the GI50 [8]?
A: The GI50 was 5.18 µM (inactive).

Q: What about the GI50 [9] of the same molecule?
A: The GI50 was 4.82 µM (inactive).

Q: And the GI50 [10]?
A: Its GI50 is 25.3 µM (inactive).

Q: What about the GI50 [11] of the same molecule?
A: The GI50 was 1.66 µM (inactive).

Q: What about the GI50 [12] of the same molecule?
A: The GI50 was 4.41 µM (inactive).

Q: And the GI50 [17]?
A: Its GI50 is 3.03 µM (inactive).

Q: What about the GI50 [18] of the same molecule?
A: The GI50 was > 100 µM (inactive).

Q: And the GI50 [13]?
A: Its GI50 is > 41.7 µM (inactive).

Q: What about the GI50 [19] of the same molecule?
A: The GI50 was 21.4 µM (inactive).

Q: What about the GI50 [14] of the same molecule?
A: Its GI50 is 31.8 µM (inactive).

Q: What about the GI50 [15] of the same molecule?
A: The GI50 was 6.58 µM (inactive).

Q: Which results are given for COc1cc(C(C)c2cc3c(cc2OCCOCCOc2cc4c(cc2C(C)c2cc(OC)c(OC)c(OC)c2)OCO4)OCO3)cc(OC)c1OC (stereo unspecified)?
A: GI50 [1]: > 10 µM (inactive); GI50 [2]: > 10 µM (inactive); GI50 [3]: > 10 µM (inactive); GI50 [4]: > 10 µM (inactive); GI50 [5]: > 10 µM (inactive); GI50 [6]: > 10 µM (inactive); GI50 [7]: > 10 µM (inactive); GI50 [8]: > 10 µM (inactive); GI50 [9]: > 10 µM (inactive); GI50 [10]: > 10 µM (inactive); GI50 [11]: > 10 µM (inactive); GI50 [12]: > 10 µM (inactive); GI50 [13]: > 10 µM (inactive); GI50 [14]: > 10 µM (inactive); GI50 [15]: > 10 µM (inactive)

Q: CC1CC(c2ccccc2)=Nc2ccccc2S1 (stereo unspecified) was tested. Which GI50 [1] did it give?
A: The GI50 was > 100 µM (inactive).

Q: And the GI50 [2]?
A: Its GI50 is > 100 µM (inactive).

Q: And the GI50 [3]?
A: The GI50 was 41.9 µM (inactive).

Q: What about the GI50 [4] of the same molecule?
A: The GI50 was > 100 µM (inactive).

Q: What about the GI50 [5] of the same molecule?
A: The GI50 was > 100 µM (inactive).

Q: What about the GI50 [6] of the same molecule?
A: Its GI50 is > 100 µM (inactive).

Q: And the GI50 [7]?
A: The GI50 was > 100 µM (inactive).

Q: And the GI50 [8]?
A: The GI50 was > 100 µM (inactive).

Q: And the GI50 [10]?
A: Its GI50 is > 100 µM (inactive).

Q: What about the GI50 [11] of the same molecule?
A: The GI50 was > 100 µM (inactive).

Q: And the GI50 [12]?
A: Its GI50 is > 100 µM (inactive).

Q: And the GI50 [13]?
A: Its GI50 is > 100 µM (inactive).

Q: And the GI50 [14]?
A: Its GI50 is > 100 µM (inactive).

Q: And the GI50 [15]?
A: Its GI50 is 97.3 µM (inactive).
